The supplement of paper PMC10307832

Assays:
Test in all cases: relative viability (nuclei count vs DMSO), 5 days (fraction); higher = more cells survive
A-427 = test system: A-427
How it was run: (§1)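 Relative viability equals treated-well nuclei counts divided by vehicle-well nuclei counts. Counts came from 4× images of lung cancer cell lines grown in 1536-well plates for 5 days after pin-tool dosing on the day after seeding. Dosing used one drug alone or a fixed anchor-drug dose plus five library-drug doses (not always all listed) in √10 steps, and values are medians of duplicate plates.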

ABC-1 = test system: ABC-1
How it was run: as §1

EMC-BAC-2 = test system: EMC-BAC-2
How it was run: as §1

HARA = test system: HARA
How it was run: as §1

HOP-62 = test system: HOP-62
How it was run: as §1

LK-2 = test system: LK-2
How it was run: as §1

LXF-289 = test system: LXF-289
How it was run: as §1

NCI-H1792 = test system: NCI-H1792
How it was run: as §1

NCI-H1944 = test system: NCI-H1944
How it was run: as §1

NCI-H1993 = test system: NCI-H1993
How it was run: as §1

NCI-H2009 = test system: NCI-H2009
How it was run: as §1

NCI-H2170 = test system: NCI-H2170
How it was run: as §1

NCI-H2228 = test system: NCI-H2228
How it was run: as §1

NCI-H3122 = test system: NCI-H3122
How it was run: as §1

NCI-H322M = test system: NCI-H322M
How it was run: as §1

NCI-H522 = test system: NCI-H522
How it was run: as §1

NCI-H596 = test system: NCI-H596
How it was run: as §1

NCI-H727 = test system: NCI-H727
How it was run: as §1

PC-3 [JPC-3] = test system: PC-3 [JPC-3]
How it was run: as §1

SK-MES-1 = test system: SK-MES-1
How it was run: as §1

SW 1573 = test system: SW 1573
How it was run: as §1

SW 900 = test system: SW 900
How it was run: as §1

## Cc1sc2c(c1C)C(c1ccc(Cl)cc1)=N[C@@H](CC(=O)OC(C)(C)C)c1nnc(C)n1-2 [JQ1] + CCNC(=O)c1noc(-c2cc(C(C)C)c(O)cc2O)c1-c1ccc(CN2CCOCC2)cc1 [Luminespib] (partner 0.01 µM)
A-427; first compound 0.04 µM
  relative viability: 0.795
A-427; first compound 0.1265 µM
  relative viability: 0.97
A-427; first compound 0.4 µM
  relative viability: 0.847
A-427; first compound 1.265 µM
  relative viability: 0.563
A-427; first compound 4 µM
  relative viability: 0.431
ABC-1; first compound 0.04 µM
  relative viability: 0.612
ABC-1; first compound 0.1265 µM
  relative viability: 0.286
ABC-1; first compound 0.4 µM
  relative viability: 0.479
ABC-1; first compound 1.265 µM
  relative viability: 0.192
ABC-1; first compound 4 µM
  relative viability: 0.267
EMC-BAC-2; first compound 0.04 µM
  relative viability: 1.16
EMC-BAC-2; first compound 0.1265 µM
  relative viability: 1.09
EMC-BAC-2; first compound 0.4 µM
  relative viability: 0.925
EMC-BAC-2; first compound 1.265 µM
  relative viability: 0.472
EMC-BAC-2; first compound 4 µM
  relative viability: 0.477
HARA; first compound 0.04 µM
  relative viability: 0.65
HARA; first compound 0.1265 µM
  relative viability: 0.508
HARA; first compound 0.4 µM
  relative viability: 0.374
HARA; first compound 1.265 µM
  relative viability: 0.168
HARA; first compound 4 µM
  relative viability: 0.153
HOP-62; first compound 0.04 µM
  relative viability: 0.867
HOP-62; first compound 0.1265 µM
  relative viability: 0.824
HOP-62; first compound 0.4 µM
  relative viability: 0.477
HOP-62; first compound 1.265 µM
  relative viability: 0.309
HOP-62; first compound 4 µM
  relative viability: 0.128
LK-2; first compound 0.04 µM
  relative viability: 0.188
LK-2; first compound 0.1265 µM
  relative viability: 0.157
LK-2; first compound 0.4 µM
  relative viability: 0.143
LK-2; first compound 1.265 µM
  relative viability: 0.142
LK-2; first compound 4 µM
  relative viability: 0.136
LXF-289; first compound 0.04 µM
  relative viability: 0.675
LXF-289; first compound 0.1265 µM
  relative viability: 0.601
LXF-289; first compound 0.4 µM
  relative viability: 0.597
LXF-289; first compound 1.265 µM
  relative viability: 0.495
LXF-289; first compound 4 µM
  relative viability: 0.541
NCI-H1792; first compound 0.04 µM
  relative viability: 0.522
NCI-H1792; first compound 0.1265 µM
  relative viability: 0.437
NCI-H1792; first compound 0.4 µM
  relative viability: 0.383
NCI-H1792; first compound 1.265 µM
  relative viability: 0.201
NCI-H1792; first compound 4 µM
  relative viability: 0.314
NCI-H1944; first compound 0.04 µM
  relative viability: 0.73
NCI-H1944; first compound 0.1265 µM
  relative viability: 0.632
NCI-H1944; first compound 0.4 µM
  relative viability: 0.451
NCI-H1944; first compound 1.265 µM
  relative viability: 0.37
NCI-H1944; first compound 4 µM
  relative viability: 0.353
NCI-H1993; first compound 0.04 µM
  relative viability: 1.03
NCI-H1993; first compound 0.1265 µM
  relative viability: 0.789
NCI-H1993; first compound 0.4 µM
  relative viability: 0.821
NCI-H1993; first compound 1.265 µM
  relative viability: 0.637
NCI-H1993; first compound 4 µM
  relative viability: 0.889
NCI-H2009; first compound 0.04 µM
  relative viability: 0.971
NCI-H2009; first compound 0.1265 µM
  relative viability: 0.657
NCI-H2009; first compound 0.4 µM
  relative viability: 0.878
NCI-H2009; first compound 1.265 µM
  relative viability: 0.295
NCI-H2009; first compound 4 µM
  relative viability: 0.298
NCI-H2170; first compound 0.04 µM
  relative viability: 0.743
NCI-H2170; first compound 0.1265 µM
  relative viability: 0.837
NCI-H2170; first compound 0.4 µM
  relative viability: 0.572
NCI-H2170; first compound 1.265 µM
  relative viability: 0.326
NCI-H2170; first compound 4 µM
  relative viability: 0.336
NCI-H2228; first compound 0.04 µM
  relative viability: 0.148
NCI-H2228; first compound 0.1265 µM
  relative viability: 0.19
NCI-H2228; first compound 0.4 µM
  relative viability: 0.0885
NCI-H2228; first compound 1.265 µM
  relative viability: 0.112
NCI-H2228; first compound 4 µM
  relative viability: 0.103
NCI-H3122; first compound 0.04 µM
  relative viability: 0.0811
NCI-H3122; first compound 0.1265 µM
  relative viability: 0.0744
NCI-H3122; first compound 0.4 µM
  relative viability: 0.162
NCI-H3122; first compound 1.265 µM
  relative viability: 0.0911
NCI-H3122; first compound 4 µM
  relative viability: 0.131
NCI-H322M; first compound 0.04 µM
  relative viability: 0.797
NCI-H322M; first compound 0.1265 µM
  relative viability: 0.879
NCI-H322M; first compound 0.4 µM
  relative viability: 0.599
NCI-H322M; first compound 1.265 µM
  relative viability: 0.383
NCI-H322M; first compound 4 µM
  relative viability: 0.395
NCI-H522; first compound 0.04 µM
  relative viability: 1.12
NCI-H522; first compound 0.1265 µM
  relative viability: 1.21
NCI-H522; first compound 0.4 µM
  relative viability: 0.677
NCI-H522; first compound 1.265 µM
  relative viability: 0.601
NCI-H522; first compound 4 µM
  relative viability: 0.504
NCI-H596; first compound 0.04 µM
  relative viability: 1.09
NCI-H596; first compound 0.1265 µM
  relative viability: 0.769
NCI-H596; first compound 0.4 µM
  relative viability: 0.495
NCI-H596; first compound 1.265 µM
  relative viability: 0.344
NCI-H596; first compound 4 µM
  relative viability: 0.287
NCI-H727; first compound 0.04 µM
  relative viability: 0.357
NCI-H727; first compound 0.1265 µM
  relative viability: 0.423
NCI-H727; first compound 0.4 µM
  relative viability: 0.45
NCI-H727; first compound 1.265 µM
  relative viability: 0.35
NCI-H727; first compound 4 µM
  relative viability: 0.346
PC-3 [JPC-3]; first compound 0.04 µM
  relative viability: 0.82
PC-3 [JPC-3]; first compound 0.1265 µM
  relative viability: 0.716
PC-3 [JPC-3]; first compound 0.4 µM
  relative viability: 0.614
PC-3 [JPC-3]; first compound 1.265 µM
  relative viability: 0.443
PC-3 [JPC-3]; first compound 4 µM
  relative viability: 0.302
SK-MES-1; first compound 0.04 µM
  relative viability: 0.756
SK-MES-1; first compound 0.1265 µM
  relative viability: 0.581
SK-MES-1; first compound 0.4 µM
  relative viability: 0.317
SK-MES-1; first compound 1.265 µM
  relative viability: 0.163
SK-MES-1; first compound 4 µM
  relative viability: 0.173
SW 1573; first compound 0.04 µM
  relative viability: 0.249
SW 1573; first compound 0.1265 µM
  relative viability: 0.182
SW 1573; first compound 0.4 µM
  relative viability: 0.195
SW 1573; first compound 1.265 µM
  relative viability: 0.0871
SW 1573; first compound 4 µM
  relative viability: 0.0908
SW 900; first compound 0.04 µM
  relative viability: 0.153
SW 900; first compound 0.1265 µM
  relative viability: 0.186
SW 900; first compound 0.4 µM
  relative viability: 0.169
SW 900; first compound 1.265 µM
  relative viability: 0.183
SW 900; first compound 4 µM
  relative viability: 0.177
